{"source": "patent US20120122787A1", "about": "“METHODS FOR TREATING POLYCYSTIC KIDNEY DISEASE (PKD) OR OTHER CYST FORMING DISEASES” (priority 2009, published 2012)", "key": {"[1]": {"system": "HDAC5 phosphorylation (Ser489)", "assay": "HDAC5 phosphorylation immunoblot in MEK cells without or with fluid flow", "assay_type": "cell-based, mouse", "conditions": "for HDAC5 phosphorylation in the absence of fluid flow: no fluid flow, PMA 100 nM, ionomycin 1 μM, phospho-specific antibody; for fluid flow-induced HDAC5 phosphorylation: fluid flow 0.2 ml/min, GÖ6983 10 μM, GdCl3 20 μM", "protocol": "(§1) Confluent mouse embryonic kidney (MEK) cells were cultured for 1-2 additional days in the absence of interferon-γ to induce optimal differentiation (Nauli et al., 2003). Hanks' Balanced Salt Solution with 20.0 mM HEPES buffer (pH 7.4) and 1% bovine serum albumin was used for calcium imaging and cell culture media for the other experiments. Fluid flow was applied at 0.2 ml/min using a peristaltic pump in 35 mm dishes or 6-well plates, with tubings connected through two 18 Gauge needles at opposing sides of a well (FIG. 9A). Time-lapse imaging was performed on an Axiovert 200M inverted microscope (Karl Zeiss Microlmaging Inc., Thornwood, N.Y.) equipped with a 20×/0.8 NA Plan-Apochromat objective, a Pecon XL-3 environmental chamber (PeCon GmbH, Erbach, Germany) and an AxioCam HSm r1.1 digital monochrome camera (Karl Zeiss). In drug treatments, […] (Sigma-Aldrich, St. Louis, Mo.) was used at 100 nM, GÖ6983 (Sigma-Aldrich) at 10 μM, ionomycin (Sigma-Aldrich) at 1 μM, and GdCl3 (Sigma-Aldrich) at 20 μM.\nWhether fluid flow across monolayers of MEK cells led to endogenous HDAC5 phosphorylation was determined using a phospho-specific antibody against HDAC5 Ser489 site (equivalent of Ser498 of human HDAC5) (Bossuyt et al., 2008). While HDAC5 phosphorylation level was low prior to fluid flow onset, an increase in phosphorylation was observed 30 minutes after the start of fluid flow and maintained for several hours thereafter (FIGS. 1A and 1B). The increase in HDAC5 phosphorylation was accompanied by an increase in the level of total HDAC5 (FIGS. 12A, C), consistent with the flow-induced gene expression of HDAC5 observed in the microarray analysis (Table 2). […] By contrast, HDAC5 phosphorylation was induced by the calcium ionophore, ionomycin, in the absence of fluid flow (FIG. 1D, see also FIG. 20 for the quantification of HDAC5 phosphorylation levels under various conditions). Treatment with PMA, an activator of protein kinase C(PKC), stimulated HDAC5 phosphorylation in the absence of fluid flow, while the PKC inhibitor GÖ6983 inhibited flow-induced HDAC5 phosphorylation (FIGS. 1D and 20)."}, "[2]": {"system": "PCK rat (a recessive PKD model)", "conditions": "Wang et al., 2008; cited from earlier work"}, "[3]": {"system": "MIM", "assay": "Immunoblot of MIM in Pkd2−/− embryonic kidneys from TSA-treated mothers", "assay_type": "in vivo, mouse", "conditions": "TSA-treated vs DMSO-treated mothers", "protocol": "(§2) Pkd2^+/− mice were originally provided by S. Somlo (Yale University, New Haven, Conn.) and Hdac5^−/− mice by E. Olson (University of Texas Southwestern Medical Center, Dallas, Tex.). To obtain embryos of various genotypes, the mutant mice were paired and the pregnant females were sacrificed on 18.5 DPC to collect embryonic kidneys. For TSA treatment experiments pregnant Pkd2^+/− females paired with Pkd2^+/− males were subcutaneously injected daily, from 10.5 dpc to 18.5 dpc with 0.5 μg TSA (Biomol, Enzo Life Sciences Inc., Farmingdale, N.Y.) per gram mouse body weight or DMSO (solvent of TSA) in phosphate buffered saline (PBS). At the end of this treatment, females were sacrificed and embryonic kidneys were collected.\n(§3) To test further the possibility that reducing the activity of HDAC5 could suppress cyst formation in Pkd2^−/− embryos, trichostatin A (TSA), a chemical inhibitor against type I and II HDACs (Drummond et al., 2005), was injected into pregnant Pkd2+/− female mice from 10.5 dpc after mating with Pkd2+/− males, and embryonic kidneys were analyzed at 18.5 dpc."}, "[4]": {"system": "MEF2C", "assay": "Immunoblot of MEF2C in Pkd2−/− embryonic kidneys from TSA-treated mothers", "assay_type": "in vivo, mouse", "conditions": "TSA-treated vs DMSO-treated mothers", "protocol": "as §2, §3"}, "[5]": {"system": "Pkd2−/− embryos", "assay": "TSA injection of pregnant Pkd2+/- mice, histology of E18.5 embryonic kidneys", "assay_type": "in vivo, mouse", "protocol": "as §2, §3"}, "[6]": {"system": "HDAC5 nuclear export", "assay": "HDAC5-GFP nuclear export in transfected MEK cells", "assay_type": "cell-based, mouse", "conditions": "for fluid flow-induced HDAC5 nuclear export: GÖ6983 10 μM, GdCl3", "protocol": "as §1\nTo determine whether HDAC5 was exported from the nucleus in response to fluid flow, FLAG-MEF2C and HDAC5-GFP constructs were co-transfected into Pkd1^+/+ and Pkd1^−/− MEK cells, and both tagged proteins correctly localized to the nucleus. Stimulation of MEK cells with fluid flow for 30 min led to translocation of HDAC5-GFP, but not FLAG-MEF2C, from the nucleus in Pkd1^+/+. MEK cells, but not in Pkd1^−/− MEK cells (FIG. 2A). […] By contrast, a HDAC5-GFP mutant lacking the 14-3-3 phosphorylation sites (HDAC5^S250/489A) was not exported (FIG. 2C), consistent with a requirement for phosphorylation of these regulatory sites in fluid flow-induced nuclear export of HDAC5. HDAC5 nuclear export also failed in Pkd1^−/− MEK cells, cells treated with GdCl3 (FIG. 2C), or the PKC inhibitor GÖ6983, while treatment with PMA stimulated HDAC5 nuclear exit even without fluid flow (FIG. 2D)."}, "[7]": {"system": "PKD^ws25/− mice", "assay": "SAHA treatment of PKDws25/− mice (mouse model of PKD)", "conditions": "4 weeks", "protocol": "PKD^ws25/− mice (Wu et al., 1998) were obtained from Albert Einstein College of Medicine (Bronx, N.Y.). PKD^ws25/− mice escape the embryonic lethality of the PKD^−/− phenotype, but recapitulate the human ADPKD phenotype in that they develop cysts early in life (Wu et al., 1998). Eight week old PKD^ws25/− mice (n=15 per group) were treated with 100 mg/kg vorinostat (SAHA) or vehicle (Veh). Animals were dosed daily by i.p. for 5 days followed by 2 days off, for a total of 4 weeks. […] At the end of study, animals were sacrificed and blood taken for analysis of blood urea nitrogen (BUN) levels using the manufacturer's protocol for Hitachi Urea Nitrogen (BUN) Reagent Set (Pointe Scientific, Inc., Canton, Mich.)."}}}
{"compound": "C[C@H](CCC(=O)O)C[C@H](C)C[C@H](C)C(=O)/C=C(\\O)[C@H](C)C[C@H](C)C/C=C/[C@@H](C)[C@@H](O)[C@@H](C)[C@@H](O)C[C@@H]1CC[C@@](C)([C@H]2CC[C@@](C)([C@@H](C)O)O2)O1", "note": "[ionomycin]", "values": [{"measurement": "HDAC5 phosphorylation in the absence of fluid flow", "setting": "[1]", "result": "induced"}]}
{"compound": "1-deamino-8-D-arginine vasopressin [dDAVP]", "values": [{"measurement": "effect on cystic disease", "setting": "[2]", "result": "aggravated cystic disease"}]}
{"compound": "CC(/C=C/C(=O)NO)=C\\[C@@H](C)C(=O)c1ccc(N(C)C)cc1", "note": "[TSA, trichostatin A]", "values": [{"measurement": "expression of MIM", "setting": "[3]", "result": "drastically increased"}, {"measurement": "enhancement of expression of MEF2C", "setting": "[4]", "result": 4, "unit": "fold"}, {"measurement": "kidney cyst formation in Pkd2−/− embryos", "setting": "[5]; 0.5 μg TSA per gram body weight s.c. daily to mothers 10.5-18.5 dpc, compared to DMSO-injected mothers", "result": "drastically reduced"}, {"measurement": "morphology of renal tubules in Pkd2+/+ embryonic kidneys", "setting": "[5]; Pkd2+/+ embryos from TSA-injected mothers", "result": "did not affect"}, {"measurement": "morphology of cyst lining cells in Pkd2−/− kidneys", "setting": "[5]; TSA-treated mothers, as opposed to flat morphology of Pkd2−/− cyst lining cells", "result": "more normal cuboidal morphology"}]}
{"compound": "COc1ccc2c(c1)c(C1=C(c3c[nH]c4ccccc34)C(=O)NC1=O)cn2CCCN(C)C", "note": "[GÖ6983]", "values": [{"measurement": "fluid flow-induced HDAC5 nuclear export", "setting": "[6]", "result": "failed"}, {"measurement": "fluid flow-induced HDAC5 phosphorylation", "setting": "[1]", "result": "inhibited"}]}
{"compound": "[Cl][Gd]([Cl])[Cl]", "note": "[GdCl3]", "values": [{"measurement": "fluid flow-induced HDAC5 nuclear export", "setting": "[6]", "result": "failed"}, {"measurement": "fluid flow-induced HDAC5 phosphorylation", "setting": "[1]", "result": "blocked"}]}
{"compound": "CCCCCCCCCCCCCC(=O)O[C@@H]1[C@@H](C)[C@@]2(O)[C@@H](C=C(CO)C[C@]3(O)C(=O)C(C)=C[C@@H]23)[C@@H]2C(C)(C)[C@]12OC(C)=O", "note": "[PMA, 12-myristate 13-acetate]", "values": [{"measurement": "HDAC5 nuclear exit without fluid flow", "setting": "[6]; no fluid flow, 100 nM PMA", "result": "stimulated"}, {"measurement": "HDAC5 phosphorylation in the absence of fluid flow", "setting": "[1]", "result": "stimulated"}]}
{"compound": "O=C(CCCCCCC(=O)Nc1ccccc1)NO", "note": "[SAHA, suberoylanilide hydroxamic acid]", "values": [{"measurement": "blood urea nitrogen (BUN) levels", "setting": "[7]; 100 mg/kg i.p. daily 5 days on, 2 days off, compared to vehicle", "result": "significantly lower"}, {"measurement": "animals lost", "setting": "[7]; 100 mg/kg i.p., n=15 per group", "result": "one"}, {"measurement": "renal tubular epithelial morphology", "setting": "[7]; 100 mg/kg i.p., kidney images vs control", "result": "well organized, nearly normal epithelial morphology"}]}
